Test results reported in patent EP0723539B1, “TRICYCLIC SULFONAMIDE COMPOUNDS USEFUL FOR INHIBITION OF G-PROTEIN FUNCTION AND FOR TREATMENT OF PROLIFERATIVE DISEASES” (SCHERING CORPORATION, priority 1993, dated 1995).

Columns and labels:
[1] = biological target: T1, farnesyl protein transferase (FPT) (Rattus norvegicus, UniProt Q02293+Q04631); assay: In vitro enzyme assay: inhibition of farnesyl protein transferase (transfer of [3H]farnesyl to Ras-CVLS); assay type: biochemical
T1 construct: partially purified rat brain farnesyl protein transferase (FPT); from tissue; host or cells: rat brain
Description: (§1) Both farnesyl protein transferase (FPT) and geranylgeranyl protein transferase (GGPT) I were partially purified from rat brain by ammonium sulfate fractionation followed by Q-Sepharose (Pharmacia, Inc.) anion exchange chromatography essentially as described by Yokoyama et al (Yokoyama, K., et al., (1991), A protein geranylgeranyltransferase from bovine brain: Implications for protein prenylation specificity, Proc. Natl. Acad. Sci USA 88: 5302-5306, the disclosure of which is incorporated herein by reference thereto). Two forms of val^12-Ha-Ras protein were prepared as substrates for these enzymes, differing in their carboxy terminal sequence. One form terminated in cysteine-valine-leucine-serine (Ras-CVLS) the other in cystein-valine-leucine-leucine (Ras-CVLL). […]
Several methods for measuring farnesyl protein transferase activity have been described (Reiss et al 1990, Cell 62: 81; Schaber et al 1990, J. Biol. Chem. 265: 14701; Manne et al 1990, PNAS 87: 7541; and Barbacid & Manne 1993, U.S. Patent No. 5,185,248). […] Filter mats were washed once with 6% TCA, 2% SDS and radioactivity was measured in a Wallac 1204 Betaplate BS liquid scintillation counter. Percent inhibition was calculated relative to the DMSO vehicle control.

[2] = test system: Ras-CVLS processing; assay: Cell-based assay: Ras processing in Ras-transfected COS cells (immunoblot); design: species or system monkey; conditions: read-out: INHIBITION OF Ras PROCESSING IC50
Procedure: COS monkey kidney cells were transfected by electroporation with the plasmid pSV-SPORT (Gibco/BRL) containing a cDNA insert encoding either Ras-CVLS or Ras-CVLL, leading to transient overexpression of a Ras substrate for either farnesyl protein transferase or geranylgeranyl protein transferase I, respectively (see above).
Following electroporation, cells were plated into 6-well tissue culture dishes containing 1.5 ml of Dulbecco's-modified Eagle's media (GIBCO, Inc.) supplemented with 10% fetal calf serum and the appropriate farnesyl protein transferase inhibitors. After 24 hours, media was removed and fresh media containing the appropriate drugs was re-added. […]
Membranes were blocked by incubation overnight at 4°C in PBS containing 2.5% dried milk and 0.5% Tween-20 and then incubated with a Ras-specific monoclonal antibody, Y13-259 (Furth, M.E., et al., (1982), Monoclonal antibodies to the p21 products of the transforming gene of Harvey murine sarcome virus and of the cellular ras gene family, J. Virol. 43: 294-304), in PBS containing 1% fetal calf serum for one hour at room temperature. […] The presence of processed and unprocessed Ras-CVLS or Ras-CVLL was detected using a colorimetric peroxidase reagent (4-chloro-1-naphthol) as described by the manufacturer (Bio-Rad).

[3] = test system: T24-BAG4 human bladder carcinoma cells expressing an activated H-ras gene; assay: Cell Mat assay: inhibition of tumor cell growth; assay type: cell-based
Procedure: (§2) Normal human HEPM fibroblasts were planted in 3.5 cm dishes at a density of 5 x 10^4 cells/dish in 2 ml growth medium, and incubated for 3-5d to achieve confluence. Medium was aspirated from each dish and the indicator tumor cells, T24-BAG4 human bladder carcinoma cells expressing an activated H-ras gene, were planted on top of the fibroblast monolayer at a density of 2 x 10^3cells/dish in 2 ml growth medium, and allowed to attach overnight. Compound-induced colony inhibition was assayed by addition of serial dilutions of compound directly to the growth medium 24 h after tumor cell planting, and incubating cells for an additional 14 d to allow colony formation. Assays were terminated by rinsing monolayers twice with phosphate-buffered saline (PBS), fixing the monolayers with a 1% glutaraldehyde solution in PBS, then visualizing tumor cells by staining with X-Gal (Price, J., et al., Lineage analysis in the vertebrate nervous system by retrovirus-mediated gene transfer, Proc. Natl. Acad. Sci.84, 156-160(1987)). […] The therapeutic index of the compound was quantitatively expressed as the ratio of mIC50/tIC50, with values greater than one indicative of tumor target specificity.

[4] = test system: Normal human HEPM fibroblasts; assay: Cell Mat assay: inhibition of normal cell growth (cell mat); assay type: cell-based; conditions: Fibroblast, normal cell monolayer
Procedure: as §2

[5] = biological target: T2, geranylgeranyl protein transferase (GGPT) I (Rattus norvegicus, UniProt P53610+Q04631); assay: In vitro enzyme assay: inhibition of geranylgeranyl protein transferase I (Ras-CVLL as acceptor); assay type: biochemical; conditions: Ras-CVLL as isoprenoid acceptor, read-out: inhibits GGPT
T2 construct: geranylgeranyl protein transferase (GGPT) I were partially purified from rat brain; from tissue; host or cells: rat brain
Description: as §1, with “(Ras-CVLL). Ras-CVLS is a substrate for the famesyl protein transferase while Ras-CVLL is a substrate for geranylgeranyl protein transferase I. The cDNAs encoding these proteins were constructed so that the proteins contain an amino-terminal extension of 6 histidine residues. Both proteins were expressed in Escherichia coli and purified using metal chelate affinity chromatography. The radiolabelled isoprenyl pyrophosphate substrates, [3H]farnesyl pyrophosphate and [^3H]geranylgeranyl pyrophosphate, were purchased from DuPont/New England Nuclear.” for “(Ras-CVLL).”

| SMILES | FPT IC50 ([1]; partially purified rat brain FPT, Ras-CVLS farnesylation) [µM] | IC50 [2] [µM] | IC50 ([3]; Homo sapiens, Ras-transformed tumor cells) [µM] | IC50 [4] [µM] | selective for FPT inhibition ([1]; FPT versus GGPT) | inhibition at 42 µM [5] [%] | antiproliferative activity against Ras-transformed cells (in words) [3] |
| --- | --- | --- | --- | --- | --- | --- | --- |
| C=CS(=O)(=O)N1CCC(=C2c3ccc(Cl)cc3CCc3cccnc32)CC1 [Compound 2.9] | 0.01 to 10 | 0.01 to 10 | 6.3 | 25 | – | – | – |
| O=S(=O)(Cc1ccccc1)N1CCC(=C2c3ccc(Cl)cc3CCc3cccnc32)CC1 [Compound 2.12] | – | – | – | – | at least 32 fold | 14 | only weak antiproliferative activity |
